Assay type in all cases: cell-based, human
Holding throughout (conditions): Tacrolimus 10 ng/mL (Table 3); 7 days MLR; mean +/- SD

The subject of one test is CD3^+ cells. Nature of the test: In vitro T cell proliferation assay (allogenic PBMC co-culture, MLR), CD3+ cells. An excerpt:
(§1) Frozen PBMC were thawed in RPMI medium (Gibco, Thermofisher scientific, Waltham, Massachusetts, USA) with 20% fetal bovine serum (Cytiva, Little Chalfont, Buckinghamshire, United Kingdom). 200 000 PBMC from an individual, stained with CelltraceTM Violet Dye (Thermofisher scientific), were cocultured with 200 000 PBMC from another individual stained with CelltraceTM Farr Red Dye (Thermofisher Scientific) in RPMI medium supplemented with 10 % FBS and penicilline-streptomycine (Cultek, Madrid, Spain) for 7 days. […] Cells were analyzed using a LSRFortessaTM flow cytometer with DIVA (BD Biosciences) and FlowJo Softwares (Tree Star, Ashland, OR, USA). For each condition, we assessed the proportion of PBMC with low Violet or Farr Red dye staining among CD3^+ cells, C3^+CD4^+ cells and CD3^+CD4^+PD-1^+ cells and proceeded to normalization to the MLR without drug condition.

The test system of a further test is CD3^+CD4^+PD-1^+ cells. Nature of the test: In vitro T cell proliferation assay (allogenic PBMC co-culture, MLR), CD3+CD4+PD-1+ cells.
From the text: as §1

The test system of the next test is CD3^+CD4^+ cells. The test can be described thus: In vitro T cell proliferation assay (allogenic PBMC co-culture, MLR), CD3+CD4+ cells.
From the text: as §1

For `C=CC[C@@H]1/C=C(\C)C[C@H](C)C[C@H](OC)[C@H]2O[C@@](O)(C(=O)C(=O)N3CCCC[C@H]3C(=O)O[C@H](/C(C)=C/[C@@H]3CC[C@@H](O)[C@H](OC)C3)[C@H](C)[C@@H](O)CC1=O)[C@H](C)C[C@@H]2OC` [Tacrolimus], the “Proliferation of CD3^+ cells (% of proliferation compared with the condition without drug)” value with CD3^+ cells was 19.35 +/- 14.78%. In the test with CD3^+CD4^+PD-1^+ cells, the “Proliferation of CD3^+CD4^+PD-1^+ cells (% of proliferation compared with the condition without drug)” value was 25.65 +/-20.39%. For the same molecule, the “Proliferation of CD3^+CD4^+ cells (% of proliferation compared with the condition without drug)” value in the test with CD3^+CD4^+ cells is 23.34 +/- 20.03%.

For the origin of these results see patent EP4454710A1, “BISPECIFIC FUSION PROTEINS WITH IMMUNOSUPPRESSIVE ACTIVITY” (Universitat de Barcelona, priority 2023, dated 2024).
